In patent US10138232B2, “Naphthyridinedione derivatives” (NOVARTIS AG, priority 2014, dated 2018):

System: CFTR-Y122X (GFP-CFTR-Y122X-Renilla construct) in Hek293 cell lines
Experiment: CFTR-Y122X assay (dual reporter readthrough, Renilla luminescence)
Format: cell-based
Conditions: Homo sapiens; for AC50: nonsense mutation suppression in the CFTR-Y122X assay; for AC50 / Emax: compounds incubated 24 h, tested up to 100 μM; for Emax: nonsense mutation suppression, 100% activity = 14 mM paromomycin, read-out: Amax
Description: In particular, compounds of formula (I), (I′), (Ia), (Ia′) or (Ib) I act as nonsense mutation suppressors on frequent PTCs, e.g. on Y122X in the mRNA of the cystic fibrosis conductance regulator protein (CFTR). This can be determined in vitro, for example, using cell lines expressing GFP-CFTR-Y122X-Renilla constructs as described herein.
Activity of compounds of the present invention was examined in recombinant, dual reporter isogenic Hek293 cell lines (“CFTR-Y122X assay”). The engineered reporter constructs contained the 18 bp sequence strech corresponding to a common Y122X PTC mutation in CFTR class I mutant patients (see Sermet-Gaudelus, BMC Medicine, 2007, 5(5)). Instead of a tyrosine (Y) in position 122 of the CFTR protein a TGA stop codon interrupts the open reading frame (Y122X) of the corresponding mRNA. This TGA stop codon triplet (followed by the pyrimidine base cytosine) is permissive to aminoglycoside mediated translational readthrough which served as positive control for high throughput screening. A corresponding TAA stop codon variant and a wildtype non mutated construct was used for confirmation and counter screening. The CFTR sequence was sandwiched between an eGFP reporter, and a triple myc tag sequence fused to a full length Renilla reporter. All sequences, including an intron containing one positioned pre-eGFP (b-globin intron) were cloned in frame. The corresponding expression constructs were stably expressed in the isogenic HEK-R4 cell host (Invitrogen Incorp.) and selected by blasticidin resistance. The isogenic integration of the construct minimizes gene dose effects and improves assay reproducibility. Stably integrated single cell derived clones were selected and characterized for aminoglycoside mediated readthrough. […] Readthrough of Y122X accumulates an intracellular localized fusion protein approximately 65.5 kDa in size as controlled by western blot analysis and immunofluorescence using an anti-renilla antibody. The eGFP reporter pre-PTC mutation serves as visual control for genetic stability of the screening clones and minimizes protein degradation of small fusion protein amounts. In the assay, compound concentration was 10 μM. In miniaturized 1536 well format 2000 cells were dispensed in 4 μl/well and incubated for 24 h at 37° C., 5% CO2. 40 nl compounds were placed on the cells with control wells containing 1 ul Paramomycin and 14.4 mM final concentration. Compounds were incubated for 24 h. Renilla Glo substrate (2.5 ul) was added and plates were centrifuged and processed for luminescence measurement using various readers. Activity calculation was done using the equation: A1(%)=100*(S−NC)/(AC−NC) where AC, NC and S correspond to active controls (injection of Stimulation buffer=100% stimulation), neutral controls (buffer injection which Iloprost EC10) and screening samples (S). NC corresponds to 0% activity whereas AC is 100% activity (14 mM paromomycin). False positive artefacts were removed in confirmation and validation screening using the same assay format followed by counterscreening using the respective wildtype construct (w/o PTC mutation) cell model. Compounds were tested up to 100 μM compound concentration.

Row | Compound | AC50 [µM] | Emax [%] | EC50 (clone pursued for HTS assay development, read-out: EC50 (response of selected clone, aminoglycoside mediated readthrough)) [µM]
1 | COc1cccc2c(=O)c3c(=O)n(-c4ccccc4)c(C(C)C)cc3[nH]c12 [Example 1.47, 3-isopropyl-6-methoxy-2-phenylbenzo[b][1,6]naphthyridine-1,10(2H,5H)-dione] | 5.2 | 312 | –
2 | COc1cccc2c(=O)c3c(=O)n(-c4ccccc4)c(C4CCC4)cc3[nH]c12 [Example 1.48, 3-cyclobutyl-6-methoxy-2-phenylbenzo[b][1,6]naphthyridine-1,10(2H,5H)-dione] | 1.8 | 227 | –
3 | COc1ccc2c(c1)c(=O)c1c(=O)n(-c3ccccc3)c(C(C)C)cc1n2C [Example 1.49] | – | 17 | –
4 | COc1ccc2[nH]c3cc(C(C)C)n(-c4ccccc4)c(=O)c3c(=O)c2c1 [Example 1.50, 3-isopropyl-8-methoxy-2-phenylbenzo[b][1,6]naphthyridine-1,10(2H,5H)-dione] | 16.9 | 110 | –
5 | CC(C)c1cc2c(c(=O)c3cc(O)ccc3n2C)c(=O)n1-c1ccccc1 [Example 1.51, 8-hydroxy-3-isopropyl-5-methyl-2-phenylbenzo[b][1,6]naphthyridine-1,10(2H,5H)-dione] | 16.5 | 144 | –
6 | CC(C)c1cc2c(c(=O)c3cccc(O)c3n2C)c(=O)n1-c1ccccc1 [Example 1.52, 6-hydroxy-3-isopropyl-5-methyl-2-phenylbenzo[b][1,6]naphthyridine-1,10(2H,5H)-dione] | 21 | 49 | –
7 | O=c1c2ccccc2[nH]c2cc(C3CCC3)n(C3CCCC3)c(=O)c12 [Example 2.1, 3-cyclobutyl-2-cyclopentylbenzo[b][1,6]naphthyridine-1,10(2H,5H)-dione] | 0.5 | 229 | –
8 | Cn1c2ccccc2c(=O)c2c(=O)n(C3CCCC3)c(C3CCC3)cc21 [Example 2.2, 3-cyclobutyl-2-cyclopentyl-5-methylbenzo[b][1,6]naphthyridine-1,10(2H,5H)-dione] | 2.1 | 262 | –
9 | CC(C)c1cc2[nH]c3ccccc3c(=O)c2c(=O)n1C1CCCC1 [Example 2.3, 2-cyclopentyl-3-isopropylbenzo[b][1,6]naphthyridine-1,10(2H,5H)-dione] | 0.4 | 235 | –
10 | CC(C)c1cc2c(c(=O)c3ccccc3n2C)c(=O)n1C1CCCC1 [Example 2.4, 2-cyclopentyl-3-isopropyl-5-methylbenzo[b][1,6]naphthyridine-1,10(2H,5H)-dione] | 1.8 | 274 | –
11 | O=c1c2ccccc2[nH]c2cc(C3CCC3)n(-c3ccccn3)c(=O)c12 [Example 2.5, 3-cyclobutyl-2-(pyridin-2-yl)benzo[b][1,6]naphthyridine-1,10(2H,5H)-dione] | 2.7 | 217 | –
12 | Cn1c2ccccc2c(=O)c2c(=O)n(-c3ccccn3)c(C3CCC3)cc21 [Example 2.6, 3-cyclobutyl-5-methyl-2-(pyridin-2-yl)benzo[b][1,6]naphthyridine-1,10(2H,5H)-dione] | 3.3 | 232 | –
13 | O=c1c2ccccc2[nH]c2cc(C3CCC3)n(N3CCCC3)c(=O)c12 [Example 2.7, 3-cyclobutyl-2-(pyrrolidin-1-yl)benzo[b][1,6]naphthyridine-1,10(2H,5H)-dione] | 0.7 | 197 | –
14 | Cn1c2ccccc2c(=O)c2c(=O)n(N3CCCC3)c(C3CCC3)cc21 [Example 2.8, 3-cyclobutyl-5-methyl-2-(pyrrolidin-1-yl)benzo[b][1,6]naphthyridine-1,10(2H,5H)-dione] | 6.1 | 188 | –
15 | CC(C)c1cc2[nH]c3ccccc3c(=O)c2c(=O)n1-c1ccccn1 [Example 2.9, 3-isopropyl-2-(pyridin-2-yl)benzo[b][1,6]naphthyridine-1,10(2H,5H)-dione] | 4.2 | 198 | –
16 | CC(C)c1cc2c(c(=O)c3ccccc3n2C)c(=O)n1-c1ccccn1 [Example 2.10, 3-isopropyl-5-methyl-2-(pyridin-2-yl)benzo[b][1,6]naphthyridine-1,10(2H,5H)-dione] | 10 | 177 | –
17 | CC(C)c1cc2[nH]c3ccccc3c(=O)c2c(=O)n1N1CCCC1 [Example 2.11, 3-isopropyl-2-(pyrrolidin-1-yl)benzo[b][1,6]naphthyridine-1,10(2H,5H)-dione] | 0.9 | – | –
18 | CC(C)c1cc2c(c(=O)c3ccccc3n2C)c(=O)n1N1CCCC1 [Example 2.12, 3-isopropyl-5-methyl-2-(pyrrolidin-1-yl)benzo[b][1,6]naphthyridine-1,10(2H,5H)-dione] | 1.7 | 178 | –
19 | CC(C)c1cc2[nH]c3ccccc3c(=O)c2c(=O)n1N1CCCCC1 [Example 2.13, 3-isopropyl-2-(piperidin-1-yl)benzo[b][1,6]naphthyridine-1,10(2H,5H)-dione] | 1.8 | 265 | –
20 | CC(C)c1cc2c(c(=O)c3ccccc3n2C)c(=O)n1N1CCCCC1 [Example 2.14, 3-isopropyl-5-methyl-2-(piperidin-1-yl)benzo[b][1,6]naphthyridine-1,10(2H,5H)-dione] | 1.7 | 271 | –
21 | CC(C)c1cc2[nH]c3sccc3c(=O)c2c(=O)n1C1CCCC1 [Example 2.15, 6-cyclopentyl-7-isopropylthieno[2,3-b][1,6]naphthyridine-4,5(6H,9H)-dione] | – | 124 | –
22 | CC(C)c1cc2c(c(=O)c3ccsc3n2C)c(=O)n1C1CCCC1 [Example 2.16, 6-cyclopentyl-7-isopropyl-9-methylthieno[2,3-b][1,6]naphthyridine-4,5(6H,9H)-dione] | 1.2 | 279 | –
23 | CC(C)c1cc2[nH]c3ccccc3c(=O)c2c(=O)n1-n1cccc1 [Example 2.17, 3-isopropyl-2-(1H-pyrrol-1-yl)benzo[b][1,6]naphthyridine-1,10(2H,5H)-dione] | 9 | 237 | –
24 | CC(C)c1cc2c(c(=O)c3ccccc3n2C)c(=O)n1-n1cccc1 [Example 2.18, 3-isopropyl-5-methyl-2-(1H-pyrrol-1-yl)benzo[b][1,6]naphthyridine-1,10(2H,5H)-dione] | 17.6 | 75 | –
25 | CC(C)c1c(Cl)c2[nH]c3ccccc3c(=O)c2c(=O)n1-c1ccccc1 [Example 3.1, 4-chloro-3-isopropyl-2-phenylbenzo[b][1,6]naphthyridine-1,10(2H,5H)-dione] | 3.2 | 211 | –
26 | CC(C)c1c(Cl)c2c(c(=O)c3ccccc3n2C)c(=O)n1-c1ccccc1 [Example 3.2, 4-chloro-3-isopropyl-5-methyl-2-phenylbenzo[b][1,6]naphthyridine-1,10(2H,5H)-dione] | 17.2 | 220 | –
27 | CC(C)c1c(Br)c2c(c(=O)c3ccccc3n2C)c(=O)n1-c1ccccc1 [Example 3.3, 4-bromo-3-isopropyl-5-methyl-2-phenylbenzo[b][1,6]naphthyridine-1,10(2H,5H)-dione] | 18.8 | 122 | –
28 | NC[C@@H]1O[C@H](O[C@H]2[C@@H](O)[C@H](O[C@@H]3[C@@H](O)[C@H](N)C[C@H](N)[C@H]3O[C@H]3O[C@H](CO)[C@@H](O)[C@H](O)[C@H]3N)O[C@@H]2CO)[C@H](N)[C@@H](O)[C@@H]1O [paromomycin, reference compound] | – | – | 1500
